In patent US20230081426A1, “COMPOUNDS AND METHODS FOR KRAS MODULATION AND INDICATIONS THEREFOR” (Plexxikon Inc., priority 2020, published 2023) one finds IC50 data, which are given here for 24 compounds.

Experiment [1] addresses T1, G12C-mutant human KRAS (amino acid residues 1-188) (Homo sapiens, UniProt P01116, G12C).
T1 construct: G12D or G12C-mutant human KRAS (amino acid residues 1-188) with FLAG tag; made in house; host or cells: E. coli
As to the kind of experiment: KRAS Binding Disruption Assay (AlphaScreen; biotinylated KRpep-2d analogue or RAF1-RBD), G12C. To be noted: geometric mean, read-out: KRAS GMean IC50 (uM) MUTATION: G12C. The essentials:
(§1)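 AlphaScreen readout: signal falls as compound displaces biotinylated KRpep-2d analogue or RAF1-RBD from mutant KRAS. Both partners at 5-20 nM, 1 h binding at 25° C, then 10 μg/mL Anti-Flag acceptor and streptavidin donor beads for 1 h. IC50 by nonlinear regression of % inhibition.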

Experiment [2] addresses T2, G12D-mutant human KRAS (amino acid residues 1-188) (Homo sapiens, UniProt P01116, G12D).
T2 construct: G12D or G12C-mutant human KRAS (amino acid residues 1-188) with FLAG tag; made in house; host or cells: E. coli
As to the kind of experiment: KRAS Binding Disruption Assay (AlphaScreen; biotinylated KRpep-2d analogue or RAF1-RBD), G12D. To be noted: KRAS G12D; geometric mean; read-out: KRAS GMean IC50 (uM) MUTATION: G12D. In short, it runs like this: as §1

Each structure is given as a SMILES string.

T1 sequence (P01116 1-188 isoform P01116-2 G12C): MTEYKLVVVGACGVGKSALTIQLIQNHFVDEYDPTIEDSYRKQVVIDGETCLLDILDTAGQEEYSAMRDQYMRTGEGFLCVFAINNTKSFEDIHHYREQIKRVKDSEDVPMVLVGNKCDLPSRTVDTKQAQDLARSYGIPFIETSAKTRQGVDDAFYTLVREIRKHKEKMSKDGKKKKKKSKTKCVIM
T2 sequence (P01116 1-188 isoform P01116-2 G12D): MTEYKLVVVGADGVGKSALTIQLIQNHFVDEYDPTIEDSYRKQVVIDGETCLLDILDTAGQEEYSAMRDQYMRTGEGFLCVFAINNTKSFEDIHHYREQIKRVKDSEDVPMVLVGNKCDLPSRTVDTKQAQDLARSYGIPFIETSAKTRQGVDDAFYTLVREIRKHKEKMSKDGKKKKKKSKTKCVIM

As to `O=C(OCc1ccccc1)N1CCC[C@H]1COc1nc(N2C[C@H]3CC[C@@H](C2)N3)c2ccc(-c3cc(O)cc4ccccc34)c(F)c2n1` [P-0677, benzyl (S)-2-(((4-((1R,5S)-3,8-diazabicyclo[3.2.1]octan-3-yl)-8-fluoro-7-(3-hydroxynaphthalen-1-yl)quinazolin-2-yl)oxy)methyl)pyrrolidine-1-carboxylate], the values for the IC50 in experiment [1] and in experiment [2] were 10 to 100 µM and 0.0001 to 10 µM, respectively.

Consider `Fc1ccc2[nH]cc(-c3ccc4c(N5C[C@H]6CC[C@@H](C5)N6)nc(OCC56CCCN5CCC6)nc4c3F)c2c1Cl` [P-0678, 4-((1R,5S)-3,8-diazabicyclo[3.2.1]octan-3-yl)-7-(4-chloro-5-fluoro-1H-indol-3-yl)-8-fluoro-2-((tetrahydro-1H-pyrrolizin-7a(5H)-yl)methoxy)quinazoline], for which the IC50 in experiment [1] and in experiment [2] was 0.0001 to 10 µM each time.

For the compound `Fc1cc2c(N3C[C@H]4CC[C@@H](C3)N4)nc(OCC34CCCN3CCC4)nc2c(F)c1-c1c[nH]c2ccc(F)c(Cl)c12` [P-0679, 4-((1R,5S)-3,8-diazabicyclo[3.2.1]octan-3-yl)-7-(4-chloro-5-fluoro-1H-indol-3-yl)-6,8-difluoro-2-((tetrahydro-1H-pyrrolizin-7a(5H)-yl)methoxy)quinazoline], the IC50 in experiment [1] and in experiment [2] was 0.0001 to 10 µM each time.

As for `O=C1CCC2(CN(c3nc(N4C[C@H]5CC[C@@H](C4)N5)c4ccc(-c5cc(O)cc6ccccc56)c(F)c4n3)C2)N1` [P-0680, 2-(4-((1R,5S)-3,8-diazabicyclo[3.2.1]octan-3-yl)-8-fluoro-7-(3-hydroxynaphthalen-1-yl)quinazolin-2-yl)-2,5-diazaspiro[3.4]octan-6-one], the figures for the IC50 in experiment [1] and in experiment [2] were 100 to 1000 µM and 0.0001 to 10 µM, respectively.

On to `Oc1cc(-c2ccc3c(N4C[C@H]5CC[C@@H](C4)N5)nc(NCC4(O)CCC4)nc3c2F)c2ccccc2c1` [P-0681, 4-(4-((1R,5S)-3,8-diazabicyclo[3.2.1]octan-3-yl)-8-fluoro-2-(((1-hydroxycyclobutyl)methyl)amino)quin-azolin-7-yl)naphthalen-2-ol], for which the IC50 in experiment [1] lay in the range of 100 to 1000 µM; in experiment [2], 0.0001 to 10 µM.

In the case of `Oc1cc(-c2ccc3c(N4C[C@H]5CC[C@@H](C4)N5)nc(N4CC5(CCCN5)C4)nc3c2F)c2ccccc2c1` [P-0682, 4-(4-((1R,5S)-3,8-diazabicyclo[3.2.1]octan-3-yl)-8-fluoro-2-(2,5-diazaspiro[3.4]octan-2-yl)quinazolin-7-yl)naphthalen-2-ol], the results for the IC50 in experiment [1] and in experiment [2] were 10 to 100 µM and 0.0001 to 10 µM, respectively.

Turning to `CC(C)(O)C1CN(c2nc(N3C[C@H]4CC[C@@H](C3)N4)c3ccc(-c4cc(O)cc5ccccc45)c(F)c3n2)C1` [P-0683, 4-(4-((1R,5S)-3,8-diazabicyclo[3.2.1]octan-3-yl)-8-fluoro-2-(3-(2-hydroxypropan-2-yl)azetidin-1-yl)quinazolin-7-yl)naphthalen-2-ol], the concentration for half-maximal inhibition (IC50) in experiment [1] was in the range of 100 to 1000 µM; in experiment [2], 0.0001 to 10 µM.

On to `CN1CCN(c2nc(N3C[C@H]4CC[C@@H](C3)N4)c3ccc(-c4cc(O)cc5ccccc45)c(F)c3n2)CC1` [P-0684, 4-(4-((1R,5S)-3,8-diazabicyclo[3.2.1]octan-3-yl)-8-fluoro-2-(4-methylpiperazin-1-yl)quinazolin-7-yl)naphthalen-2-ol], for which the results for the concentration for half-maximal inhibition (IC50) in experiment [1] and in experiment [2] were 100 to 1000 µM and 0.0001 to 10 µM, respectively.

For `Oc1cc(-c2ccc3c(N4C[C@H]5CC[C@@H](C4)N5)nc(N4C[C@@H](O)[C@H](O)C4)nc3c2F)c2ccccc2c1` [P-0685, (3R,4R)-1-(4-((1R,5S)-3,8-diazabicyclo[3.2.1]octan-3-yl)-8-fluoro-7-(3-hydroxynaphthalen-1-yl)quinazolin-2-yl)pyrrolidine-3,4-diol], the IC50 in experiment [1] lay within 10 to 100 µM; in experiment [2], 0.0001 to 10 µM.

Regarding `OCC1(CO)CN(c2nc(N3C[C@H]4CC[C@@H](C3)N4)c3ccc(-c4cc(O)cc5ccccc45)c(F)c3n2)C1` [P-0686, (1-(4-((1R,5S)-3,8-diazabicyclo[3.2.1]octan-3-yl)-8-fluoro-7-(3-hydroxynaphthalen-1-yl)quinazolin-2-yl)azetidine-3,3-diyl)dimethanol], the IC50 in experiment [1] lay within 100 to 1000 µM; in experiment [2] it was 0.0001 to 10 µM.

With `Oc1cc(-c2ccc3c(N4C[C@H]5CC[C@@H](C4)N5)nc(N4C[C@@H](O)[C@@H](O)C4)nc3c2F)c2ccccc2c1` [P-0687, (3S,4R)-1-(4-((1R,5S)-3,8-diazabicyclo[3.2.1]octan-3-yl)-8-fluoro-7-(3-hydroxynaphthalen-1-yl)quinazolin-2-yl)pyrrolidine-3,4-diol], the IC50 in experiment [1] was in the range of 100 to 1000 µM; in experiment [2] it was 0.0001 to 10 µM.

For `Oc1cc(-c2ccc3c(N4CC5CCC(C4)N5)nc(OCC4CCCC4O)nc3c2F)c2ccccc2c1` [P-0688, 4-(4-((1R,5S)-3,8-diazabicyclo[3.2.1]octan-3-yl)-8-fluoro-2-((2-hydroxycyclopentyl)methoxy)quinazo-lin-7-yl)naphthalen-2-ol], the figures for the IC50 in experiment [1] and in experiment [2] were 10 to 100 µM and 0.0001 to 10 µM, respectively.

Consider `Oc1cc(-c2ccc3c(N4C[C@H]5CC[C@@H](C4)N5)nc(OCCn4cncn4)nc3c2F)c2ccccc2c1` [P-0689, 4-(2-(2-(1H-1,2,4-triazol-1-yl)ethoxy)-4-((1R,5S)-3,8-diazabicyclo[3.2.1]octan-3-yl)-8-fluoroquinazolin-7-yl)naphthalen-2-], for which the values for the IC50 in experiment [1] and in experiment [2] were 10 to 100 µM and 0.0001 to 10 µM, respectively.

Regarding `Oc1cc(-c2ccc3c(N4C[C@H]5CC[C@@H](C4)N5)nc(OCCn4cccn4)nc3c2F)c2ccccc2c1` [P-0690, 4-(2-(2-(1H-pyrazol-1-yl)ethoxy)-4-((1R,5S)-3,8-diazabicyclo[3.2.1]octan-3-yl)-8-fluoroquinazolin-7-yl)naphthalen-2-ol], the results for the IC50 in experiment [1] and in experiment [2] were 10 to 100 µM and 0.0001 to 10 µM, respectively.

Consider `Oc1cc(-c2ccc3c(N4C[C@H]5CC[C@@H](C4)N5)nc(OCCn4cccc4)nc3c2F)c2ccccc2c1` [P-0691, 4-(2-(2-(1H-pyrrol-1-yl)ethoxy)-4-((1R,5S)-3,8-diazabicyclo[3.2.1]octan-3-yl)-8-fluoroquinazolin-7-yl)naphthalen-2-ol], for which the IC50 in experiment [1] lay in the range of 10 to 100 µM; in experiment [2] it was 0.0001 to 10 µM.

Consider `CC(=O)NCCOc1nc(N2C[C@H]3CC[C@@H](C2)N3)c2ccc(-c3cc(O)cc4ccccc34)c(F)c2n1` [P-0692, N-(2-((4-((1R,5S)-3,8-diazabicyclo[3.2.1]octan-3-yl)-8-fluoro-7-(3-hydroxynaphthalen-1-yl)quinazolin-2-yl)oxy)ethyl)acetamide], for which the IC50 in experiment [1] lay in the range of 10 to 100 µM; in experiment [2], 0.0001 to 10 µM.

For the compound `O=C1CCCN1CCOc1nc(N2C[C@H]3CC[C@@H](C2)N3)c2ccc(-c3cc(O)cc4ccccc34)c(F)c2n1` [P-0693, 1-(2-((4-((1R,5S)-3,8-diazabicyclo[3.2.1]octan-3-yl)-8-fluoro-7-(3-hydroxynaphthalen-1-yl)quinazolin-2-yl)oxy)ethyl)pyrrolidin-2-one], the results for the IC50 in experiment [1] and in experiment [2] were 10 to 100 µM and 0.0001 to 10 µM, respectively.

Turning to `O=C1CCC(=O)N1CCOc1nc(N2C[C@H]3CC[C@@H](C2)N3)c2ccc(-c3cc(O)cc4ccccc34)c(F)c2n1` [P-0694, 1-(2-((4-((1R,5S)-3,8-diazabicyclo[3.2.1]octan-3-yl)-8-fluoro-7-(3-hydroxynaphthalen-1-yl)quinazolin-2-yl)oxy)ethyl)pyrrolidine-2,5-dione], the values for the IC50 in experiment [1] and in experiment [2] were 10 to 100 µM and 0.0001 to 10 µM, respectively.

Take `Oc1cc(-c2ccc3c(N4C[C@H]5CC[C@@H](C4)N5)nc(OCCN4CCOCC4)nc3c2F)c2ccccc2c1` [P-0695, 4-(4-((1R,5S)-3,8-diazabicyclo[3.2.1]octan-3-yl)-8-fluoro-2-(2-morpholinoethoxy)quinazolin-7-yl)naphthalen-2-ol]: the values for the IC50 in experiment [1] and in experiment [2] were 10 to 100 µM and 0.0001 to 10 µM, respectively.

With `Oc1cc(-c2ccc3c(N4C[C@H]5CC[C@@H](C4)N5)nc(OCCN4CCCC4)nc3c2F)c2ccccc2c1` [P-0696, 4-(4-((1R,5S)-3,8-diazabicyclo[3.2.1]octan-3-yl)-8-fluoro-2-(2-(pyrrolidin-1-yl)ethoxy)quinazolin-7-yl)naphthalen-2-ol], the IC50 in experiment [1] was 10 to 100 µM; in experiment [2], 0.0001 to 10 µM.

Take `Fc1c(-c2c[nH]c3cccc(C4CC4)c23)ccc2c(N3C[C@H]4CC[C@@H](C3)N4)nc(OCC34CCCN3CCC4)nc12` [P-0697, 4-((1R,5S)-3,8-diazabicyclo[3.2.1]octan-3-yl)-7-(4-cyclopropyl-1H-indol-3-yl)-8-fluoro-2-((tetrahydro-1H-pyrrolizin-7a(5H)-yl)methoxy)quinazoline]: the IC50 in experiment [1] and in experiment [2] was 0.0001 to 10 µM throughout.

`CCc1cccc2[nH]cc(-c3ccc4c(N5C[C@H]6CC[C@@H](C5)N6)nc(OCC56CCCN5CCC6)nc4c3)c12` [P-0698, 4-((1R,5S)-3,8-diazabicyclo[3.2.1]octan-3-yl)-7-(4-ethyl-1H-indol-3-yl)-2-((tetrahydro-1H-pyrrolizin-7a(5H)-yl)methoxy)quinazoline]: the figures for the IC50 in experiment [1] and in experiment [2] were 10 to 100 µM and 0.0001 to 10 µM, respectively.

With `CCc1cccc2[nH]cc(-c3ccc4c(N5C[C@H]6CC[C@@H](C5)N6)nc(OCC56CCCN5CCC6)nc4c3F)c12` [P-0699, 4-((1R,5S)-3,8-diazabicyclo[3.2.1]octan-3-yl)-7-(4-ethyl-1H-indol-3-yl)-8-fluoro-2-((tetrahydro-1H-pyrrolizin-7a(5H)-yl)methoxy)quinazoline], the IC50 in experiment [1] and in experiment [2] was 0.0001 to 10 µM throughout.

For the compound `Clc1cccc2[nH]cc(-c3ccc4c(N5C[C@H]6CC[C@@H](C5)N6)nc(OCC56CCCN5CCC6)nc4c3)c12` [P-0700, 4-((1R,5S)-3,8-diazabicyclo[3.2.1]octan-3-yl)-7-(4-chloro-1H-indol-3-yl)-2-((tetrahydro-1H-pyrrolizin-7a(5H)-yl)methoxy)quinazoline], the IC50 lay within 10 to 100 µM in experiment [1] and 0.0001 to 10 µM in experiment [2].
